For the assay, the target named is SARS-CoV-2 3CLpro (Severe acute respiratory syndrome coronavirus 2, UniProt P0DTD1). The experiment in a line: biochemical. The format is biochemical. Details: Replicate_1 / Replicate_2 / mean / mean (LOPAC_screen_w_protease): unit not given here. The note with it: for inhibition at 5 µM: 4 h.
The mark [1] stands for this setting: sheet LOPAC_screen_w_protease, LOPAC1280 at 5 µM, mean of two replicates, read-out: mean.
Setting [2] is: sheet LOPAC_screen_w_protease, LOPAC1280 at 5 µM, replicate 1, read-out: Replicate_1.
Where [3] appears, read: sheet LOPAC_screen_w_protease, LOPAC1280 at 5 µM, replicate 2, read-out: Replicate_2.
[4] abbreviates: sheet LOPAC_screen_w_protease, primary screen of LOPAC1280 at 5 µM with protease, mean of the two replicates, read-out: mean.
Where [5] appears, read: sheet LOPAC_screen_w_protease, primary screen of LOPAC1280 at 5 µM with protease, replicate 1, read-out: Replicate_1.
Where [6] appears, read: sheet LOPAC_screen_w_protease, primary screen of LOPAC1280 at 5 µM with protease, replicate 2, read-out: Replicate_2.
Where [7] appears, read: LOPAC1280 primary screen with protease, 5 µM compound, mean of the two replicates.
[8] abbreviates: sheet LOPAC_screen_w_protease, LOPAC1280 primary screen with protease, 5 µM compound, mean of the two replicates, read-out: mean.
Where [9] appears, read: sheet LOPAC_screen_w_protease, LOPAC1280 primary screen with protease, 5 µM compound, replicate 1, read-out: Replicate_1.
Setting [10] is: sheet LOPAC_screen_w_protease, LOPAC1280 primary screen with protease, 5 µM compound, replicate 2, read-out: Replicate_2.
[11] abbreviates: sheet LOPAC_screen_w_protease, primary screen with protease, 5 µM, mean of two replicates, read-out: mean.
[12] abbreviates: sheet LOPAC_screen_w_protease, primary screen with protease, 5 µM, replicate 1, read-out: Replicate_1.
[13] abbreviates: sheet LOPAC_screen_w_protease, primary screen with protease, 5 µM, replicate 2, read-out: Replicate_2.
Setting [14] is: sheet LOPAC_screen_w_protease, primary screen with protease, mean of two replicates, read-out: mean.
Setting [15] is: sheet LOPAC_screen_w_protease, primary screen with protease, replicate 1, read-out: Replicate_1.
Setting [16] is: sheet LOPAC_screen_w_protease, primary screen with protease, replicate 2, read-out: Replicate_2.
Setting [17] is: LOPAC1280 primary screen with protease, 5 µM compound, replicate 1, read-out: Replicate_1 (LOPAC_screen_w_protease).
Where [18] appears, read: LOPAC1280 primary screen with protease, 5 µM compound, replicate 2, read-out: Replicate_2 (LOPAC_screen_w_protease).
[19] abbreviates: sheet LOPAC_screen_w_protease, LOPAC1280 primary screen at 5 µM, with protease, mean of the two replicates, read-out: mean.
Setting [20] is: sheet LOPAC_screen_w_protease, LOPAC1280 primary screen at 5 µM, with protease, replicate 1, read-out: Replicate_1.
Setting [21] is: sheet LOPAC_screen_w_protease, LOPAC1280 primary screen at 5 µM, with protease, replicate 2, read-out: Replicate_2.

The structures appear in SMILES notation. Counter-ions that a name gives are not always drawn. Like-named read-outs stand apart in the source and are kept apart here.

`NCCNC(=O)Cc1ccc(NC(=O)Cc2ccc(Nc3ncnc4c3ncn4[C@@H]3O[C@H](CO)[C@@H](O)[C@H]3O)cc2)cc1` [Adenosine amine congener] had a mean (sheet LOPAC_screen_w_protease, primary screen with protease, compound at 5 µM, mean of two replicates) of 2.686. The same compound came in with a Replicate_1 (sheet LOPAC_screen_w_protease, primary screen with protease, compound at 5 µM, replicate 1) of 3.268. For the setting “sheet LOPAC_screen_w_protease, primary screen with protease, compound at 5 µM, replicate 2”, this compound had a Replicate_2 of 2.1037.

For `Nc1ncnc2c1ncn2[C@@H]1O[C@H](CO)[C@@H](O)[C@H]1O` [Adenosine], the inhibition at 5 µM by setting is: (read-out: Replicate_1) 1.26%; (read-out: Replicate_2) 3.55%; (read-out: mean) 2.4%.

Turning to `NCCCCN=C(N)N` [Agmatine sulfate], the inhibition at 5 µM under setting [1] worked out at 1.26%, the inhibition at 5 µM under setting [2] was determined as 0.743% and the inhibition at 5 µM under setting [3] turned out to be 1.77%.

For the compound `CC1=C[C@@H]2c3cccc4[nH]cc(c34)C[C@H]2N(C)C1` [Agroclavine], the inhibition at 5 µM stood at 3.47% under setting [4], 3.6% under setting [5] and 3.34% under setting [6].

Take `CC(N)C(=O)OC(C)(C)Cc1ccc(Cl)cc1` (stereo not drawn) [Alaproclate hydrochloride]: the inhibition at 5 µM turned out to be 3.56% under setting [4], 2.81% under setting [5] and 4.3% under setting [6].

Turning to `CC(C)(C)NCC(O)c1ccc(O)c(CO)c1.CC(C)(C)NCC(O)c1ccc(O)c(CO)c1.O=S(=O)(O)O` (stereo not drawn) [Albuterol hemisulfate], the “mean (LOPAC_screen_w_protease)” value under setting [7] is given as 2.078. The “Replicate_1 (LOPAC_screen_w_protease)” value (LOPAC1280 primary screen with protease, 5 µM compound, replicate 1) turned out to be 2.563. Moreover, the “Replicate_2 (LOPAC_screen_w_protease)” value (LOPAC1280 primary screen with protease, 5 µM compound, replicate 2) turned out to be 1.593.

With `O=c1nc2[nH]c3ccccc3nc-2c(=O)[nH]1` [Alloxazine], the inhibition at 5 µM is, setting by setting: under setting [8], 4.73%; under setting [9], 4.91%; under setting [10], 4.55%.

As to `C=CCc1ccccc1OCC(O)CNC(C)C` (stereo not drawn) [Alprenolol hydrochloride], the inhibition at 5 µM by setting is: under setting [11], 0.137%; under setting [12], 0.164%; under setting [13], 0.11%.

`NC12CC3CC(CC(C3)C1)C2` [Amantadine hydrochloride]: the inhibition at 5 µM reads like this: under setting [14], 2.48%; under setting [15], 1.91%; under setting [16], 3.05%.

In the case of `CCn1cc(C(=O)O)c(=O)c2ccc(Cc3ccccc3)nc21` [Amfonelic acid], the inhibition at 5 µM under setting [4] turned out to be 3.23%, the inhibition at 5 µM under setting [5] is 4.99% and the inhibition at 5 µM under setting [6] is 1.47%.

Consider `N=C(N)NC(=O)c1nc(Cl)c(N)nc1N` [Amiloride hydrochloride], for which the inhibition at 5 µM was 0.179% under setting [11], -0.488% under setting [12] and 0.846% under setting [13].

With `CN1[C@@H]2CC[C@H]1C[C@@H](OC(c1ccccc1)c1ccccc1N)C2` (stereo partly drawn) [Aminobenztropine], the inhibition at 5 µM by setting is: (sheet LOPAC_screen_w_protease, primary screen with protease, compound at 5 µM, mean of two replicates, read-out: mean) 3.04%; (sheet LOPAC_screen_w_protease, primary screen with protease, compound at 5 µM, replicate 1, read-out: Replicate_1) 2.54%; (sheet LOPAC_screen_w_protease, primary screen with protease, compound at 5 µM, replicate 2, read-out: Replicate_2) 3.53%.

Regarding `Cl.N=C(N)NN` [Aminoguanidine hydrochloride], the mean (sheet LOPAC_screen_w_protease, primary screen with protease, mean of two replicates) turned out to be 2.381. Besides, where the note is “sheet LOPAC_screen_w_protease, primary screen with protease, replicate 1”, the Replicate_1 was 2.212. For the same compound, where the note is “sheet LOPAC_screen_w_protease, primary screen with protease, replicate 2”, the Replicate_2 is reported as 2.55.

In turn, `Cn1c(=O)c2[nH]cnc2n(C)c1=O.Cn1c(=O)c2[nH]cnc2n(C)c1=O.NCCN` [Aminophylline ethylenediamine] registered a Replicate_1 of 0.5539, a Replicate_2 of -0.4553 and a mean of 0.04927.

Take `Nc1nc(N)c2nc(CNc3ccc(C(=O)N[C@@H](CCC(=O)O)C(=O)O)cc3)cnc2n1` [Aminopterin]: the inhibition at 5 µM is, setting by setting: under setting [17], 2.12%; under setting [18], 1.52%. Also, under setting [7], the “mean (LOPAC_screen_w_protease)” value was determined as 1.819.

For `CCCCc1oc2ccccc2c1C(=O)c1cc(I)c(OCCN(CC)CC)c(I)c1` [Amiodarone hydrochloride], the inhibition at 5 µM (read-out: Replicate_1) was found to be 2.09%, the inhibition at 5 µM (read-out: Replicate_2) is 4.04% and the inhibition at 5 µM (read-out: mean) came to 3.06%.

For the compound `CN(C)CCCO[C@@H]1[C@H]2OC(C)(C)O[C@H]2O[C@@H]1[C@H](O)CO` [Amiprilose hydrochloride], the inhibition at 5 µM under setting [1] was 1.08%, the inhibition at 5 µM under setting [2] turned out to be 1.63% and the inhibition at 5 µM under setting [3] turned out to be 0.526%.

Turning to `CN(C)CCC=C1c2ccccc2CCc2ccccc21` [Amitriptyline hydrochloride], the inhibition at 5 µM is, setting by setting: under setting [19], 0.72%; under setting [20], 0.391%; under setting [21], 1.05%.

As to `N.S=C(S)N1CCCC1` [Ammonium pyrrolidinedithiocarbamate], the “mean (LOPAC screen with protease)” value (sheet LOPAC_screen_w_protease, primary screen at 5 µM, mean of two replicates) was determined as 72.0091. Moreover, the “Replicate_1 (LOPAC screen with protease)” value (sheet LOPAC_screen_w_protease, primary screen at 5 µM, replicate 1) was 73.369. The “Replicate_2 (LOPAC screen with protease)” value (sheet LOPAC_screen_w_protease, primary screen at 5 µM, replicate 2) came to 70.6492.

In the case of `Clc1ccc2c(c1)C(N1CCNCC1)=Nc1ccccc1O2` [Amoxapine], the inhibition at 5 µM is, setting by setting: under setting [4], 3.27%; under setting [5], 3.65%; under setting [6], 2.89%.

Turning to `CCNC(=O)N1CCN(CCCC(c2ccc(F)cc2)c2ccc(F)cc2)CC1` [Amperozide hydrochloride], the inhibition at 5 µM reads like this: under setting [11], 0.1%; under setting [12], 0.58%; under setting [13], -0.38%.

Regarding `COc1cc(NS(C)(=O)=O)ccc1Nc1c2ccccc2nc2ccccc12` [Amsacrine hydrochloride], the inhibition at 5 µM is 4.23% under setting [8], 4.22% under setting [9] and 4.24% under setting [10].

On to `N=c1ccn2c(n1)O[C@H]1[C@H](O)[C@@H](CO)O[C@H]12` [Ancitabine hydrochloride], for which the inhibition at 5 µM runs as follows: under setting [14], 2.45%; under setting [15], 2.42%; under setting [16], 2.49%.

As for `C[C@]12CC[C@@H](O)C[C@@H]1CC[C@@H]1[C@@H]2CC[C@]2(C)C(=O)CC[C@@H]12` [Androsterone], the inhibition at 5 µM is, setting by setting: (read-out: Replicate_1) 1.73%; (read-out: Replicate_2) 3.02%; (read-out: mean) 2.38%.

For `COc1ccc(C(=O)N2CCCC2=O)cc1` [Aniracetam], the inhibition at 5 µM (sheet LOPAC_screen_w_protease, primary screen at 5 µM, mean of two replicates, read-out: mean (LOPAC screen with protease)) worked out at 6.69%; the inhibition at 5 µM (sheet LOPAC_screen_w_protease, primary screen at 5 µM, replicate 1, read-out: Replicate_1 (LOPAC screen with protease)) was 9.93%; the inhibition at 5 µM (sheet LOPAC_screen_w_protease, primary screen at 5 µM, replicate 2, read-out: Replicate_2 (LOPAC screen with protease)) was 3.46%.

Take `Cl.c1ccc(CN(CC2=NCCN2)c2ccccc2)cc1` [Antozoline hydrochloride]: the mean (sheet LOPAC_screen_w_protease, primary screen of LOPAC1280 at 5 µM with protease, mean of the two replicates) is 3.208. For the same compound, the Replicate_1 (sheet LOPAC_screen_w_protease, primary screen of LOPAC1280 at 5 µM with protease, replicate 1) is reported as 3.9302. The same compound registered a Replicate_2 (sheet LOPAC_screen_w_protease, primary screen of LOPAC1280 at 5 µM with protease, replicate 2) of 2.486.

On to `O=c1cc(-c2ccc(O)cc2)oc2cc(O)cc(O)c12` [Apigenin], for which the inhibition at 5 µM is 0.663% (read-out: Replicate_1), -0.402% (read-out: Replicate_2) and 0.131% (read-out: mean).

In the case of `NC(N)=NCCCCN=C(N)N` [Arcaine sulfate], the inhibition at 5 µM runs as follows: under setting [19], 0.608%; under setting [20], 1.59%; under setting [21], -0.37%.

As for `C#CCOC(=O)C1=CCCN(C)C1` [Arecaidine propargyl ester hydrobromide], the inhibition at 5 µM under setting [1] was 1.23%, the inhibition at 5 µM under setting [2] was 0.854% and the inhibition at 5 µM under setting [3] worked out at 1.62%.

Regarding `COC(=O)C1=CCCN(C)C1` [Arecoline hydrobromide], the inhibition at 5 µM runs as follows: under setting [17], 1.64%; under setting [18], 1.16%. For the same compound, the “mean (LOPAC_screen_w_protease)” value (LOPAC1280 primary screen with protease, 5 µM compound, mean of two replicates) was 1.398.

Source of the values: paper PMC7587356, “High-Throughput Screening for Inhibitors of the SARS-CoV-2 Protease Using a FRET-Biosensor” (Molecules, 2020).
